From patent US20030139431A1 (priority 2001, published 2003) come the findings set out here.

What is called melting point is the temperature of the solid-liquid transition. One may read the pKi as the Ki on a negative log10 scale, so that one unit is a factor of ten. A word on the pEC50: it is the EC50 on a negative log10 scale, so that one unit is a factor of ten.

The target of data set [1] is T1, rNPFF1 (Rattus norvegicus, UniProt Q9EP86).
T1 construct: expressed in transfected cells
The data set is described as follows: Binding affinity at cloned recombinant rat NPFF1 receptor.

The target of data set [2] is T2, rNPFF2 (Rattus norvegicus, UniProt Q9EQD2).
T2 construct: expressed in transfected cells
T2 sequence (Q9EQD2 whole entry): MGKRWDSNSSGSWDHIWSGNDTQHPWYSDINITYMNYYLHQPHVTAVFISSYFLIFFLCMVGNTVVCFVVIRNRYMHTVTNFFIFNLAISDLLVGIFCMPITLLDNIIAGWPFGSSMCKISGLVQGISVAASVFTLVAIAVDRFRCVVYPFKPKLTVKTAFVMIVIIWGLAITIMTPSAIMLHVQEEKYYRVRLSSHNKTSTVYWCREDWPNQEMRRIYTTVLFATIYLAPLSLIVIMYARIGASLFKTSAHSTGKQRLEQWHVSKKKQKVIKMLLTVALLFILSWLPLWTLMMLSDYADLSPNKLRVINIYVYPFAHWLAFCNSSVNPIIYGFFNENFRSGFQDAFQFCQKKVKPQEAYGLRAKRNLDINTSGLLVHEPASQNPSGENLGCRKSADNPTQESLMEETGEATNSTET
As to the kind of experiment: Binding affinity at cloned recombinant rat NPFF2 receptor.

The target in data set [3] is T1, rNPFF1. As to the kind of experiment: Functional assay (agonist potency, intrinsic activity) at cloned rat NPFF1 receptor. Format: cell-based. The following applies: for rNPFF1 IA (intrinsic activity): percent of maximum response elicited by neuropeptide FF, rat NPFF1; for pEC50: recombinant rat NPFF1. How it is done: (§1) Intrinsic activity of a compound is measured as the percent of maximum response.

The target in data set [4] is T2, rNPFF2. The data set is described as follows: Functional assay (agonist potency, intrinsic activity) at cloned rat NPFF2 receptor. The data set is classed as cell-based. The following applies: for rNPFF2 IA (intrinsic activity): percent of maximum response elicited by neuropeptide FF, rat NPFF2; for pEC50: recombinant rat NPFF2. Here is the method:
as §1

Data set [5] deals with T3, hNPFF1 (Homo sapiens, UniProt Q9GZQ6).
T3 construct: expressed in transfected cells
T3 sequence (Q9GZQ6 whole entry): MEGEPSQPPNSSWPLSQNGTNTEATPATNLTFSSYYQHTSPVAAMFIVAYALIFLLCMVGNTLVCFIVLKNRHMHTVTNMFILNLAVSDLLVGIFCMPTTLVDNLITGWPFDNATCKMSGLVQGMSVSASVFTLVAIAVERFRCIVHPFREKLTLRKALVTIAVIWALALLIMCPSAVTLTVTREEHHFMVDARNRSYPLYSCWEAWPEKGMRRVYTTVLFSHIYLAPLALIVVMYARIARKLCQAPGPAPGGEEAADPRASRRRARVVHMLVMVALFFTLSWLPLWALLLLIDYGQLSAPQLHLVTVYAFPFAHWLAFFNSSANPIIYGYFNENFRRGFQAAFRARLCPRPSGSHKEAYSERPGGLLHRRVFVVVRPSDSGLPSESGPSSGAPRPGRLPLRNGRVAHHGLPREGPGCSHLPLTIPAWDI
As to the kind of experiment: Binding affinity at cloned recombinant human NPFF1 receptor.

The target of data set [6] is T4, hNPFF2 (Homo sapiens, UniProt Q9Y5X5).
T4 construct: expressed in transfected cells
T4 sequence (Q9Y5X5 103-522): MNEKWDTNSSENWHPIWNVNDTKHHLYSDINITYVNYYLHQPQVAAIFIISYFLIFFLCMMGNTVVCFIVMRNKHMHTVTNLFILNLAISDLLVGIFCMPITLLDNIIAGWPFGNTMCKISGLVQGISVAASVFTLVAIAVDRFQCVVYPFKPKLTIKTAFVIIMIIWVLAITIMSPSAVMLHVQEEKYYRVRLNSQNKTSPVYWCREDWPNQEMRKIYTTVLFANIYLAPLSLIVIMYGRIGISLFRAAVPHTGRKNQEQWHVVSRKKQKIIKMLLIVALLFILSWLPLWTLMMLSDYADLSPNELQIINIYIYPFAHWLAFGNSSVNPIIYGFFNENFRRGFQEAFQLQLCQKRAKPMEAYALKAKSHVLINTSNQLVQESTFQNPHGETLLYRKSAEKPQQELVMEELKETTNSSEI
The data set is described as follows: Binding affinity at cloned recombinant human NPFF2 receptor.

Data set [7] deals with distention induced contractions of the rat bladder. As to the kind of experiment: Distension-induced rhythmic contraction (DIRC) model, micturition reflex in anesthetized rats. The data set is classed as in vivo. The following applies: i.v.; for duration of inhibition of bladder activity (figure legend): dose not printed in legend. How it is done: The effects of compounds on the micturition reflex were assessed in the “distension-induced rhythmic contraction” (DIRC) model (also called “volume-induced rhythmic contraction” model) in rats, as described in previous publications (36, 38, 40). This model is widely considered to be predictive for the actions of drugs to treat human urge incontinence (also referred to as detrusor instability or unstable bladder). Examples of drugs that are active in this model which also are used therapeutically in humans include oxybutynin and baclofen (40); imipramine and nortriptyline (37); and nifedipine and terodiline (38).
Female Sprague Dawley rats weighing approximately 300 g were anesthetized with subcutaneous urethane (1.2 g/kg) The trachea was cannulated with PE240 tubing to provide a clear airway throughout the experiment. A midline abdominal incision was made and the left and right ureters were isolated. The ureters were ligated distally (to prevent escape of fluids from the bladder) and cannulated proximally with PE10 tubing. The incision was closed using 4-0 silk sutures, leaving the PE10 lines routed to the exterior for the elimination of urine. The bladder was canulated via the transurethral route using PE50 tubing inserted 2.5 cm beyond the urethral opening. This cannula was secured to the tail using tape and connected to a pressure transducer. To prevent leakage from the bladder, the cannula was tied tightly to the exterior urethral opening using 4-0 silk.
To initiate the micturition reflex, the bladder was first emptied by applying pressure to the lower abdomen, and then filled with normal saline in 100 μL increments (maximum=2 ml) until spontaneous bladder contractions occurred (typically 20-40 mmHg) at a rate of one contraction every 2 to 3 minutes. Once a regular rhythm was established, vehicle (saline) or test compounds were administered i.v. to examine their effects on bladder activity. The effect of a compound which inhibited the micturition reflex was expressed as its “disappearance time”, defined as the time between successive bladder contractions in the presence of the test compound minus the time between contractions before compound administration.

In data set [8] the target is T4, hNPFF2. As to the kind of experiment: Functional assay (agonist potency, intrinsic activity) at cloned human NPFF2 receptor. The data set is classed as cell-based. The following applies: for hNPFF2 IA (intrinsic activity): percent of maximum response elicited by neuropeptide FF, human NPFF2; for pEC50: recombinant human NPFF2. Here is the method:
as §1

In data set [9] the target is T3, hNPFF1. As to the kind of experiment: Functional assay (agonist potency, intrinsic activity) at cloned human NPFF1 receptor. Format: cell-based. The following applies: for hNPFF1 IA (intrinsic activity): percent of maximum response elicited by neuropeptide FF, human NPFF1; for pEC50: recombinant human NPFF1. How it is done:
as §1

Setting [10] is: rat cloned NPFF receptors, based on IA and Ki.

pEC50, pKi: −log10 of the molar value. Counter-ions that a name gives are not always drawn. A value given as a limit tells only on which side of the number the result lay.

T1 sequence (Q9EP86 whole entry): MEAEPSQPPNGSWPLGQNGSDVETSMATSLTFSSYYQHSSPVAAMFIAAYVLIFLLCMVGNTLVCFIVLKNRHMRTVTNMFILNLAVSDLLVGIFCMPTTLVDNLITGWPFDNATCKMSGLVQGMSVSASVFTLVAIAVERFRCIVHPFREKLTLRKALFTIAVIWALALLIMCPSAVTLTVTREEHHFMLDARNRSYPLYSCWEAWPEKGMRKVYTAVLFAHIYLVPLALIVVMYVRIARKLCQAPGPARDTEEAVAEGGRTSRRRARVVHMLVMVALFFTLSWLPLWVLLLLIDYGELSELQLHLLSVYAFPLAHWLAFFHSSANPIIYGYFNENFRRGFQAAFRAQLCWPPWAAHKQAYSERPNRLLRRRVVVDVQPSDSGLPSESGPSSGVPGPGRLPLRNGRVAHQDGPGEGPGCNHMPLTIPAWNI

`Cc1nc(NC(=N)N)nc2cc(OCc3ccccc3)ccc12` (as salt: salt) [Compound 1006, N-[7-(benzyloxy)-4-methyl-2-quinazolinyl]guanidine]: the melting point is 215 to 217 °C (dec.).
`Cc1nc(NC(=N)N)nc2cc(C(C)(C)C)ccc12` [Compound 1022, N-[7-(tert-butyl)-4-methyl-2-quinazolinyl]guanidine]: the melting point is 195 to 198 °C (dec.). Further, the pKi in [1] was 6.90. In addition, the pKi in [2] was 6.22. Also, in data set [3], the “rNPFF1 IA (intrinsic activity)” value was determined as 19% NPFF and the negative-log EC50 (pEC50) was 5.50. Besides, in data set [4], the “rNPFF2 IA (intrinsic activity)” value was 81% NPFF and the pEC50 was 6.72.
In the case of `Cc1cc(NC(=N)N)nc2ccc(Cl)cc12` [Compound 4005, N-(6-chloro-4-methyl-2-quinolinyl)guanidine], the negative-log Ki (pKi) in data set [5] is 7.62; in data set [6], 6.91; in data set [1] it was 7.60; in data set [2], 6.55. This compound had a disappearance time in data set [7] (1 mg/kg) of 35 min. Besides, in data set [7] (1 mg/kg), the “inhibition of distention induced contractions of the rat bladder” value was “complete inhibition”. The “duration of inhibition of bladder activity (figure legend)” value in data set [7] is reported as 35 min. In addition, in data set [3], the “rNPFF1 IA (intrinsic activity)” value was “Inactive”. For the same compound, the negative-log EC50 (pEC50) in data set [3] was less than 5.00; in data set [4], 6.41. In data set [4], the “rNPFF2 IA (intrinsic activity)” value is reported as 61% NPFF.
For the compound `Cc1ccc2c(C)nc(NC(=N)N)nc2c1` [Compound 3001, N-(4,7-dimethyl-2-quinazolinyl)guanidine], the pKi in data set [5] is 7.34; in [6], 5.77; in data set [1], 7.30; in [2], 5.91. Besides, the “hNPFF2 IA (intrinsic activity)” value in [8] is “Inactive”. Besides, the pEC50 in [8] and in [9] was less than 5.00 throughout. Further, the “classification as agonist or antagonist at NPFF1” value in [3] (setting [10]) is given as “antagonists”. Further, the “classification as agonist or antagonist at NPFF2” value in data set [4] (setting [10]) is recorded as “antagonists”. In [9], the “hNPFF1 IA (intrinsic activity)” value is “Inactive”.
As to `CCCCCc1ccc2nc(NC(=N)N)nc(C)c2c1` [Compound 2001, N-(4-methyl-6-pentyl-2-quinazolinyl)guanidine], the negative logarithm of the Ki (pKi) was 7.30 in data set [5], 6.42 in data set [6], 8.10 in [1] and 6.66 in [2]. In addition, the “hNPFF2 IA (intrinsic activity)” value in data set [8] is reported as 84% NPFF. In addition, the negative logarithm of the EC50 (pEC50) in [8] was 6.20; in [3] it was 6.62; in data set [4], 7.01. For the same compound, the “rNPFF1 IA (intrinsic activity)” value in [3] is listed as 71% NPFF. In addition, the “rNPFF2 IA (intrinsic activity)” value in [4] was 103% NPFF. For the same compound, the “hNPFF1 IA (intrinsic activity)” value in data set [9] is “Inactive”.
As to `Cc1nc(NC(=N)N)nc2cc3c(cc12)CCC3` [Compound 1038, N-(4-methyl-7,8-dihydro-6H-cyclopenta[g]quinazolin-2-yl)guanidine], the melting point is 295 to 298 °C (dec.). Moreover, in data set [1], the pKi is 7.02. Besides, the negative-log Ki (pKi) in data set [2] is 6.22. For the same compound, in data set [3], the “rNPFF1 IA (intrinsic activity)” value is “Inactive” and the pEC50 is less than 5.00. Also, in [4], the “rNPFF2 IA (intrinsic activity)” value is 74% NPFF and the pEC50 is 7.32.
Turning to `Cc1cc2nc(NC(=N)N)nc(C)c2cc1O` (as salt: salt) [Compound 1017, N-(6-hydroxy-4,7-dimethyl-2-quinazolinyl)guanidine], the melting point is 246 to 248 °C (dec.).
`Cc1ccc2c(C)cc(NC(=N)N)nc2c1` [Compound 4006, N-(4,7-dimethyl-2-quinolinyl)guanidine]: the negative logarithm of the Ki (pKi) in data set [5] was 7.89; in data set [6], 7.04; in data set [1], 8.15; in data set [2] it was 6.73. For the same compound, the disappearance time in data set [7] (3 mg/kg) stood at 12 min. Further, in data set [7] (3 mg/kg), the “inhibition of distention induced contractions of the rat bladder” value is “complete inhibition”. Moreover, in data set [7], the “duration of inhibition of bladder activity (figure legend)” value is given as 12 min. Also, in [8], the “hNPFF2 IA (intrinsic activity)” value is listed as “Inactive”. The pEC50 is less than 5.00 in data set [8], less than 5.00 in data set [3], 6.57 in data set [4] and less than 5.00 in [9]. Moreover, in data set [3], the “rNPFF1 IA (intrinsic activity)” value is reported as “Inactive”. Further, the “rNPFF2 IA (intrinsic activity)” value in data set [4] turned out to be 32% NPFF. In addition, in [9], the “hNPFF1 IA (intrinsic activity)” value was “Inactive”.
Regarding `Cc1cc(NC(=N)N)nc2ccccc12` [Compound 6001, N-(4-methyl-2-quinolinyl)guanidine], the pKi in [5] was 7.64; in data set [6], 6.43; in [1] it was 7.96; in data set [2] it was 6.36. For the same compound, the “hNPFF2 IA (intrinsic activity)” value in data set [8] was “Inactive”. Moreover, the pEC50 in data set [8], in data set [3], in data set [4] and in data set [9] was less than 5.00 in each case. Also, the “rNPFF1 IA (intrinsic activity)” value in data set [3] is recorded as “Inactive”. In addition, the “rNPFF2 IA (intrinsic activity)” value in data set [4] is listed as “Inactive”. In addition, the “hNPFF1 IA (intrinsic activity)” value in data set [9] is “Inactive”.
